Data set [1] concerns Porina (Wiseana copularis) larvae. Briefly: Porina bioassay of purified epoxy-janthitrems (Example 6). The format is in vivo. The conditions noted are these: for Mortality of larvae: data not shown; for average diet consumption with increasing concentration: 1, 2.5, 10 μg/g wet weight, 21 days; for inhibition of feeding at the highest concentration: highest concentration (10 μg/g wet weight). The procedure: The porina bioassay was carried out as described in Example 4, with the following variations:
15 replicates were used per treatment;
the age of the larvae at the start of the experiment was 10 weeks;
diet was made weekly and replaced after 4 days within each week;
the average weight of diet consumed by the larvae, larval weight gain/loss (data not shown), and larval mortality (data not shown) was determined;
three concentrations of purified epoxy-janthitrems were used (1, 2.5, 10 μg/g wet weight) instead of four; and
an average daily diet consumption (mg/larva) across the 21 days of the trial was determined.

The test system of data set [2] is mice (Swiss, female). Briefly: Mouse tremor bioassay of purified epoxy-janthitrems (Example 7). The format is in vivo. Conditions: ip; for peak tremor score (comparison among epoxy-janthitrems): EJ I 13.5, EJ III 17.2, EJ triol 16.2 mg/kg. The procedure: Epoxy-janthitrem I, Epoxy-janthitrem II, Epoxy-janthitrem III, Epoxy-janthitrem IV, and Epoxy-janthitriol, were administered by intraperitoneal injection as DMSO/water solutions (9:1, 50 μL) into mice (Swiss, female, weight 25+3g). Control mice were injected with the solvent alone (data not shown). Groups of four mice were used for each treatment group. All animal manipulations were approved, and tremor score was calculated, as described above in Example 5.
The dosage rates were informed by the experiment described in Example 5 above, with dose rates as follows: epoxy-janthitrem I (EJ I, 13.5 mg/kg), epoxy-janthitrem II (EJ II, 14.2 mg/kg), epoxy-janthitrem III (EJ III, 17.2 mg/kg), epoxy-janthitrem IV (EJ IV, 16.5 mg/kg), epoxy-janthitriol (EJ triol, 16.2 mg/kg). Tremors were measured regularly until the mice had completely recovered.

The test system of data set [3] is mice (Swiss, female). Briefly: Mouse tremor bioassay (Example 5). Format: in vivo. The procedure:
Epoxy-janthitrem I, lolitrem B, and the related indole-diterpene, paxilline were administered by intraperitoneal injection as DMSO/water solutions (9:1, 50 μL) into mice (Swiss, female, weight 25+3 g). Control mice were injected with the solvent alone. Dose rates which induce an acceptable maximum tremor response are well established for lolitrem B (2 mg/kg; Gallagher and Hawkes, 1986) and paxilline (6 mg/kg; Miles, et al., 1992).
Groups of four mice were used for each treatment group. All animal manipulations were approved by the
AgResearch Ruakura (Hamilton) Animal Ethics Committee established under the Animal Protection (code of ethical conduct) Regulations Act, 1987 (New Zealand). Tremor score was rated 1-5 on the basis of a visual rating scale using well established protocols (Gallagher and Hawkes, 1985; Gallagher and Hawkes, 1986). Tremors were measured regularly until the mice had completely recovered.

The test system of data set [4] is Porina (Wiseana cervinata) larvae. Briefly: Porina bioassay of purified epoxy-janthitrem I in semi-synthetic diet (Example 4). The format is in vivo. The procedure:
Six week-old porina (W. cervinata) larvae reared from eggs (Popay, 2001) were starved overnight and then weighed individually. Larvae were assigned to replicates so that all larvae within a replicate were of a similar weight but randomised amongst treatments. The 20 replicate larvae per treatment were each placed in specimen containers (75 mL) half filled with commercially available fine bark chips.
(§1) An agar-based semi-synthetic diet (Popay, 2001) without antimicrobials was prepared and epoxy-janthitrem I dissolved in 100 μL DMSO was added to 10 g of diet. Four concentrations of epoxy-janthitrem I were prepared (1, 2.5, 5, 10 μg/g wet weight) along with a DMSO control. Discs of diet (7 mm diam.) were taken and placed on top of the bark and the lids were replaced. The experiment was kept in the dark at 15° C. After 24 h, each diet was visually scored for feeding on a scale of 0-10 where 0=no feeding and 10=all diet consumed. The amount of webbing present was also scored on a scale of 0-5. The diet disc was replaced daily with fresh diet for 7 days. Each time diet was replaced, samples of the diet that the porina had fed on were taken as well as a sample of the fresh diet to analyse for epoxy-janthitrem I. Porina were reweighed at the completion of the trial.
The feeding score data were normalised by square root transformation before a repeated measures analysis was carried out using REML with treatment and date as factors. The daily webbing score and weight change of larvae over 7 days were analysed using ANOVA, blocked by replicate, to make pairwise comparisons for each concentration with the solvent control at each date.

Data set [5] is described as follows: Analysis of porina diets for epoxy-janthitrem I (stability in diet). The format is physicochemical. Conditions: average. The procedure:
as §1

Structures are written as SMILES. Where only a bound is given, the exact number is not on record here.

In the case of `CC(C)=CC1O[C@@H]2C(OC3CC[C@]4(C)[C@@]5(C)c6[nH]c7cc8c(cc7c6CC5CC[C@@]4(O)C34O[C@@H]24)CC2C8=CC(C)(C)OC2(C)C)C(C)(C)O1` (stereo partly drawn) [epoxy-janthitrem II], in data set [1] (2.5 μg/g), the “Weight change of larvae” value is listed as “net weigt loss” and the Mortality of larvae result is reported as “high”. The Mortality of larvae result in data set [1] (10 μg/g) is on record as “high”. In addition, the “average diet consumption with increasing concentration” value in data set [1] was “decreased with increasing epoxy-janthitrem concentration”. The “time of peak tremorgenicity” value in the data set with mice (Swiss, female) [2] (EJ I 13.5, EJ II 14.2, EJ III 17.2, EJ IV 16.5, EJ triol 16.2 mg/kg) was 9 hours post administration.
For the molecule `CC(=O)O[C@@H]1C(C(C)(C)OCC=C(C)C)OC2CC[C@]3(C)[C@@]4(C)c5[nH]c6cc7c(cc6c5CC4CC[C@@]3(O)C23O[C@@H]13)CC1C7=CC(C)(C)OC1(C)C` (stereo partly drawn) [epoxy-janthitrem IV], in data set [1], the “inhibition of feeding at the highest concentration” value was “little inhibition of feeding”.
As to `CC1(C)C=C2c3cc4[nH]c5c(c4cc3CC2C(C)(C)O1)CC1CC[C@@]2(O)C34O[C@H]3[C@H](O)C(C(C)(C)O)OC4CC[C@]2(C)[C@@]51C` (stereo partly drawn) [epoxy-janthitriol], in data set [1], the “average diet consumption with increasing concentration” value is given as “decreased with increasing epoxy-janthitrem concentration”. Besides, the “peak tremor score (comparison among epoxy-janthitrems)” value (from here on “peak tremor score”) with mice (Swiss, female) [2] is recorded as “lowest peak tremor scores”.
For `CC(C)=CCOC(C)(C)C1OC2CC[C@]3(C)[C@@]4(C)c5[nH]c6cc7c(cc6c5CC4CC[C@@]3(O)C23O[C@H]3[C@@H]1O)CC1C7=CC(C)(C)OC1(C)C` (stereo partly drawn) [epoxy-janthitrem III], the “inhibition of feeding at the highest concentration” value in data set [1] is “little inhibition of feeding”. Besides, the “peak tremor score” value in the data set with mice (Swiss, female) [2] is “lowest peak tremor scores”.
Turning to `CC(C)(O)C1OC2CC[C@@]3(C)[C@@](O)(CCC4Cc5c([nH]c6ccccc56)[C@@]43C)C2=CC1=O` (stereo partly drawn) [paxilline, Paxilline], in the data set on mice (Swiss, female) [3] (ip, paxilline 6 mg/kg), the “time of tremor peak” value is on record as 30 mins post-dosing and the “time to complete recovery” value is ≤ 6 hours post-dosing.
For the molecule `CC(=O)O[C@@H]1C(C(C)(C)O)OC2CC[C@]3(C)[C@@]4(C)c5[nH]c6cc7c(cc6c5CC4CC[C@@]3(O)C23O[C@@H]13)CC1C7=CC(C)(C)OC1(C)C` (stereo partly drawn) [epoxy-janthitrem I], the “Weight change of larvae” value in data set [4] (1-10 ppm in diet, 7 days) is given as “continued to decline with increasing concentration”; in data set [1] (2.5 μg/g) it was “net weigt loss”. Also, the “% gain in weight” value in data set [4] (1 ppm in diet, P<0.05 vs solvent control) is 51.1%. For the same molecule, the “feeding score vs solvent control” value in data set [4] (1 ppm in diet, apart from the first day) is given as “did not differ significantly from the solvent control”; in data set [4] (2.5 ppm in diet), “consistent reduction in feeding score for the first 6 days”; in data set [4] (5 ppm in diet, entire period of the bioassay), “feeding was strongly inhibited”; in data set [4] (10 ppm in diet, entire period of the bioassay), “feeding was strongly inhibited”. Also, the “Weight gain of larvae relative to the solvent control” value in data set [4] (all concentrations except 1 ppm) is recorded as “significantly reduced”. In addition, in data set [4] (extrapolated from dry weight of diet (about ten times wet weight concentrations)), the “in planta concentration that will reliably reduce larval feeding” value is listed as ≥ 25 ppm. Besides, in data set [4] (treatments containing epoxy-janthitrem I (1, 2.5, 5, 10 μg/g wet weight), 7 days), the “Survival of larvae during the experiment” value was found to be 100%. Besides, the “concentration of epoxy-janthitrem I in diet relative to expected” value in data set [5] (analysed at time zero) is 98%. Moreover, the “epoxy-janthitrem I remaining in diet, % of the starting concentration” value in data set [5] (diets after 24 h) is 81%. Moreover, the tremor response result in the data set with mice (Swiss, female) [3] (8 mg/kg intraperitoneal) is listed as “only a low tremor response”. The Mortality of larvae result in data set [1] (2.5 μg/g) and in data set [1] (10 μg/g) was “high” each time. For the same molecule, the “average diet consumption with increasing concentration” value in data set [1] is on record as “decreased with increasing epoxy-janthitrem concentration”. The “effect on consumption at the lowest dose” value in data set [1] (lowest dose (1 μg/g wet weight)) was “substantial inhibitory effect”. For the same molecule, the “peak tremor score” value in the data set on mice (Swiss, female) [2] is on record as “significantly greater than that observed for any of the other epoxy-janthitrems”.

Source of the values: US20230145729A1, “INDOLE DITERPENE BIOSYNTHESIS” (priority 2020, published 2023).
